Measured values as given in patent publication US20170073337A1, “DIHYDROTHIAZINE AND DIHYDROOXAZINE DERIVATIVES HAVING BACE1 INHIBITORY ACTIVITY” (Shionogi & Co., Ltd., priority 2014, published 2017).

Legend:
[1] = biological target: T1, P-gp (Mus musculus, UniProt P21447); test: P-gp substrate test using mdr1a (−/−) B6 mice; type: in vivo; settings: Kp in KO mouse (mdr1a (−/−) B6) / Kp in Wild mouse; for Kp at 2 h: mdr1a (−/−) B6 (KO) and C57BL/6J (wild), mouse, brain / plasma, po, 2 mg/kg, read-out: Kp ratio (2 mg/kg, po, 2 hr)
T1 construct: from tissue; host or cells: living mice (brain/plasma distribution), wild type versus mdr1a (−/−)
T1 sequence (P21447 whole entry): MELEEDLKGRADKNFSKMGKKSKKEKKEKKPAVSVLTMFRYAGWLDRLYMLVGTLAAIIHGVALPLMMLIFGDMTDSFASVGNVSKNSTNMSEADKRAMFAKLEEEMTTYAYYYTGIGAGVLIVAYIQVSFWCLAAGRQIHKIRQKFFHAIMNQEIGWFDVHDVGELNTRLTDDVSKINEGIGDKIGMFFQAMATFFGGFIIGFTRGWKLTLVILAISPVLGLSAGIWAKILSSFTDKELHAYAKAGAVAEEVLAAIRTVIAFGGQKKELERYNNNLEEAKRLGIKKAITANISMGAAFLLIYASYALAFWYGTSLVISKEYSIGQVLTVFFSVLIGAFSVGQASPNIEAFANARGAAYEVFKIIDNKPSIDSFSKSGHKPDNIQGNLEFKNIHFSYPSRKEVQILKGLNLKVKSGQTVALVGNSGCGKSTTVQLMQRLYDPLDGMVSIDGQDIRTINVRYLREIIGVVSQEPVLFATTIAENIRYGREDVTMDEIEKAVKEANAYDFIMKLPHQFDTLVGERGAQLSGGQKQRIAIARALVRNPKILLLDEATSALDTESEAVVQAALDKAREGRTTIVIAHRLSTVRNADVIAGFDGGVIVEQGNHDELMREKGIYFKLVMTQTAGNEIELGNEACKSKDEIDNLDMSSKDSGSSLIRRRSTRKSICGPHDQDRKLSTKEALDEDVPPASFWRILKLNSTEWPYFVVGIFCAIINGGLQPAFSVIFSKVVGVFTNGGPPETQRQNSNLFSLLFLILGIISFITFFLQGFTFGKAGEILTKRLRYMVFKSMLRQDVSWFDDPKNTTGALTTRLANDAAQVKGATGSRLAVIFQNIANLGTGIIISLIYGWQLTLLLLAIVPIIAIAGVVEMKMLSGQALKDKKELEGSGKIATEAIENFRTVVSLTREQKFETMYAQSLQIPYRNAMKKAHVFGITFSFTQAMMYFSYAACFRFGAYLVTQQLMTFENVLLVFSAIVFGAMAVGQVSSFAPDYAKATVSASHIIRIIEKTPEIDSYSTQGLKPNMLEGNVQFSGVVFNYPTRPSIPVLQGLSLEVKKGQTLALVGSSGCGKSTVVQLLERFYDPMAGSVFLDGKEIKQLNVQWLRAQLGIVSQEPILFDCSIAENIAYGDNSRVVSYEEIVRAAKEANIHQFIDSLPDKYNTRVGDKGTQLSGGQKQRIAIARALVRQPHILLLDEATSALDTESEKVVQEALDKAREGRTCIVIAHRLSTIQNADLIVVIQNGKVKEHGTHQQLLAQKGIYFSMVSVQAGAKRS
Description: Animal: mdrla (−/−) B6 mice (KO mouse) or […] mice (Wild mouse)
1. Animals may be fed prior to dosing of the compounds of the present invention. 2. The compounds of the present invention were dosed to three animals for each time point and blood and brain samples were removed at selected time points (e.g. 15 min, 30 min, 1 hr, 2 hr, 4 hr, 6 hr, 8 hr, or 24 hr) after dosing. Blood (0.3-0.7 mL) was collected via trunk blood collection with syringe containing anticoagulants (EDTA and heparin). Blood and tissue (e.g. brain) samples were immediately placed on melting ice. 3. Blood samples were centrifuged (1780×g for 10 minutes) for cell removal to obtain plasma. Then, plasma samples were transferred to a clean tube and stored in a −70° C. freezer until analysis. 4. Tissue (e.g. brain) samples were homogenized at a 1:3 ratio of tissue weight to ml of stilled water and transferred to a clean tube and stored in a −70° C. freezer until analysis. 5. Plasma and tissue (e.g. brain) samples were prepared using protein prceipitation and analyzed by LC/MS/MS. The analytical method was calibrated by including a standard curve constructed with blank plasma or brain samples and known quantities of analyte. Quality control samples were included to monitor the accuracy and precision of the methodology. 6. Plasma and brain concentration values (ng/mL and ng/g) were introduced into an appropriate tool used for calculating the pharmacokinetic parameters. A common platform was the WinNonlin (Registered trademark) pharmacokinetic software modeling program.
Kp: Tissue to Plasma concentration ratio Kp ratio=Kp in KO mouse/Kp in Wild mouse KO/Wild ratio of AUC Tissue/AUC Plasma ={AUC Tissue/AUC Plasma (KO mouse)}/{AUC Tissue/AUC Plasma (Wild mouse)}

[2] = tested on: Aβ production in neuroblastoma SH-SY5Y cells (SH/APPwt); test: β-amyloid (Aβ) production inhibitory effect in cell: 96-well; type: cell-based; settings: Homo sapiens, Assay format 96-well
Description: Neuroblastoma SH-SY5V cells (SH/APPwt) with human wild-type R-APP excessively expressed therein were prepared at 8×10^5 cells/mL, and 150 μl portions thereof were inoculated into each well of a 96-well culture plate (Falcon). The cells were cultured for 2 hours at […]. in a 5% gaseous carbon dioxide incubator. […] Namely, the final DMSO concentration was 1%, and the amount of the cell culture was 200 μl. After the incubation was performed for 24 hours from the addition of the test compound, 100 μl of the culture supernatant was collected from each fraction. The amount of the Aβ in each fraction was measured. The Aβ amount was measured as follows. 10 μl of a homogeneous time resolved fluorescence (HTRF) measurement reagent (Amyloid β1-40 peptide: CIS bio international) and 10 μof the culture supernatant were put into a 384-well half area microplate (black microplate, Costar) and mixed with each other, and then left standing overnight at 4° C. while the light was shielded.

[3] = Pharmacokinetic study (oral absorption); type: in vivo; settings: bioavailability from AUCs of oral and intravenous administration; mouse or rat
Description: (1l) Animal: mouse or rat (2) Breeding conditions: mouse or rat was allowed free access to the tap water and the solid food. (3) Dose and grouping: orally or intravenously administered at a predetermined dose: grouping was as follows (Dose depends on the compound) Oral administration: 1 to 30 mg/kg (n=2 to 3) Intravenous administration: 0.5 to 10 mg/kg (n=2 to 3) (4) Dosing formulation: for oral administration, in a solution or a suspension state; for intravenous administration, in a solubilized state (5) Dosing method: in oral administration, forcedly administer using a syringe attached a flexible feeding tube; in intravenous administration, administer from caudal vein using a syringe attached with a needle. (6) Evaluation items: blood was collected at the scheduled time, and the plasma concentration of the compound of the present invention was measured by LC/MS/MS (7) Statistical analysis: regarding the transition of the plasma concentration of the compound of the present invention, the area under the plasma concentration-time curve (AUC) was calculated by non-linear least squares program WinNonlin (Registered trademark), and the bioavailability (BA) of the compound of the present invention was calculated from the AUCs of the oral administration group and intravenous administration group

[4] = biological target: T2, P-gp (MDR1 expressing LLC-PK1 cells) (Homo sapiens, UniProt P08183); test: P-gp substrate test; type: in vitro ADME; settings: net flux = Efflux Ratio in MDR1 expressing cells / Efflux Ratio in parent LLC-PK1 cells
T2 construct: host or cells: LLC-PK1
T2 sequence (P08183 whole entry): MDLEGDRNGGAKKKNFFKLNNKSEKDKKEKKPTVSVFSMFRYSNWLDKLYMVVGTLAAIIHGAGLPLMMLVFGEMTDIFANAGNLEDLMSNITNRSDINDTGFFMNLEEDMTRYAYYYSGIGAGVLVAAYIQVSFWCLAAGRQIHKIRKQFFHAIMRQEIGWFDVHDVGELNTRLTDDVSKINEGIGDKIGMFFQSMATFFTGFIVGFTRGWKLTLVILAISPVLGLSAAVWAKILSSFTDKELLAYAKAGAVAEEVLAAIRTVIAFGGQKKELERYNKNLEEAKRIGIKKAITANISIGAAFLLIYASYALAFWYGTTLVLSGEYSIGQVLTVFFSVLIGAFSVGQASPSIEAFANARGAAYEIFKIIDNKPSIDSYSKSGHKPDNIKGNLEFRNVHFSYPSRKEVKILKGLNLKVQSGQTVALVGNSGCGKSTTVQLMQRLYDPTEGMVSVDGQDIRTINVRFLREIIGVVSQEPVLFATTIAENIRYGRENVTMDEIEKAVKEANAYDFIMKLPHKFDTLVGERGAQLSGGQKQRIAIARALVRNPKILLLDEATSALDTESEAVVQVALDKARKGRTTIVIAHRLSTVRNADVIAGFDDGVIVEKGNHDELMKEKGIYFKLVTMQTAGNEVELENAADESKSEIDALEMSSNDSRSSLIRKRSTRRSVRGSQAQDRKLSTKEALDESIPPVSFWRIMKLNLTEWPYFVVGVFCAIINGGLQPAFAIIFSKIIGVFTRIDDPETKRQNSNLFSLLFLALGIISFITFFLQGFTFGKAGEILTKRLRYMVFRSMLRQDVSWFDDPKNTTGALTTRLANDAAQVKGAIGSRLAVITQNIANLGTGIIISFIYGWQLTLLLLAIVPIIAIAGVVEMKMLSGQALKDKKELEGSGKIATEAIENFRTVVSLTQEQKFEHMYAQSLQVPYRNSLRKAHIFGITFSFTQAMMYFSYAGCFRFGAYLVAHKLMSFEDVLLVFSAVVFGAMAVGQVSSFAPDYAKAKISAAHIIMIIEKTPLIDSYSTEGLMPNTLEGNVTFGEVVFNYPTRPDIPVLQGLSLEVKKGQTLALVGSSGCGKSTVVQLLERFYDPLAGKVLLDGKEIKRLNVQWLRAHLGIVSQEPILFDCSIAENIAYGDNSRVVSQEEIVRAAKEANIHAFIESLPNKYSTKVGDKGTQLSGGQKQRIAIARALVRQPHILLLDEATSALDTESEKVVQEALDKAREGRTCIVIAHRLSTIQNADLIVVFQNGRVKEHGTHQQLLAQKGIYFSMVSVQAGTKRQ
Description: • 1. Cell line: • a. MDR/LLC-PK1 (Becton Dickinson) • b. LLC-PK1 (Becton Dickinson) • 2. Reference substrates: • a Digoxin (2 μM)
1. […] After incubation for designed time at 37° C., an aliquot (50 μL) of transport buffer in the donor and receiver side were collected. Assay was performed by duplicate or triplicate. 3. Reference substrate and the present invention in the aliquot was quantified by LC/MS/MS.
Pc(cm/sec)−Permeated amount (pmol)/area of cell membrane (cm2)/initial concentration (nM)/incubation time (sec)
The efflux ratio was calculated using the following equation:
Efflux Ratio=Basolateral-to-Apical Pe/Apical-to-Basolateral Pe
The net flux was calculated using the following equation
Net flux=Efflux Ratio in MDK1 expressing cells/Efflux Ratio in parent cells

SMILES | Kp at 2 h [1] | IC50 [2] [nM] | BA_% [3] [%] | ER ratio (Cell: MDR1/LLC-PK1) [4] | Kp ratio (2 mg/kg, po, 2 hr) [1]
C[C@H]1SC(N)=N[C@](C)(c2nc(NC(=O)c3ccc(F)cn3)ccc2F)[C@H]1F [Compound I-2] | 0.959 | 3.73 | 51.3 | – | –
COc1cnc(C(=O)Nc2ccc(F)c([C@@]3(C)N=C(N)S[C@H](C)[C@@H]3F)c2)cn1 [Compound I-8] | 2.22 | 0.26 | 27.4 | 1.3 | –
C[C@H](F)[C@H]1OC(N)=N[C@](C)(c2cc(NC(=O)c3ccc(C#N)cn3)ccc2F)[C@H]1F [Compound I-13] | – | 1.12 | 47.3 | 2.4 | –
C[C@]1(c2nc(NC(=O)c3ccc(C#N)cn3)ccc2F)N=C(N)S[C@H](CF)[C@@H]1F [Compound I-4] | 2.92 | 0.697 | 83.2 | – | –
C[C@@]1(c2cc(NC(=O)c3ccc(C#N)cn3)ccc2F)C[C@@](C)(C(F)(F)F)OC(N)=N1 [Compound I-7] | 4.21 | 2.52 | 32.8 | – | –
C[C@H]1SC(N)=N[C@](C)(c2nc(NC(=O)c3cnc(OCF)cn3)ccc2F)[C@H]1F [Compound I-3] | 5.16 | 3.59 | 38.8 | – | –
C[C@H]1SC(N)=N[C@](C)(c2nc(NC(=O)c3ccc(C#N)cn3)ccc2F)[C@H]1F [Compound I-1] | 4.12 | 0.504 | 66.7 | 1.2 | –

Further lines, results first:

Kp at 2 h [1] | IC50 [2] [nM] | BA_% [3] [%] | ER ratio (Cell: MDR1/LLC-PK1) [4] | Kp ratio (2 mg/kg, po, 2 hr) [1] | SMILES
2.12 | – | – | 1.3 | – | C[C@H]1SC(N)=N[C@](C)(c2cc(NC(=O)c3cnc(OC(F)F)cn3)ccc2F)[C@H]1F [Compound I-47]
– | – | 35.2 | 1.4 | 2.66 | C[C@H]1[C@@H](C(F)(F)F)OC(N)=N[C@]1(C)c1cc(NC(=O)c2cnc(OCF)cn2)ccc1F [Compound I-41]
5.15 | 0.391 | – | 2.1 | – | C[C@]1(c2cc(NC(=O)c3ccc(C#N)cn3)ccc2F)N=C(N)O[C@H]2[C@@H]1OCC2(F)F [Compound I-35]
6.97 | – | 36.2 | 1.1 | – | CC(F)(F)[C@H]1OC(N)=N[C@](C)(c2cc(NC(=O)c3ccc(C#N)cn3)ccc2F)[C@H]1F [Compound I-40]
5.57 | – | – | 1.1 | – | C[C@H]1SC(N)=N[C@](C)(c2cc(NC(=O)c3cnc(OCC(F)F)cn3)ccc2F)[C@H]1F [Compound I-48]
2.07 | – | 28.7 | 1.5 | – | COc1cnc(C(=O)Nc2ccc(F)c([C@@]3(C)N=C(N)O[C@H](C(C)(F)F)[C@@H]3F)c2)cn1 [Compound I-42]
3.63 | 2.33 | – | – | – | C[C@H]1[C@@H](C(F)(F)F)OC(N)=N[C@]1(C)c1cc(NC(=O)c2cnc(OCF)cn2)ccc1F [Compound I-30]
6.13 | – | 22.2 | 1.5 | – | C[C@H]1SC(N)=N[C@](C)(c2cc(NC(=O)c3cnc(OCC(F)(F)F)cn3)ccc2F)[C@H]1F [Compound I-46]
4.54 | – | 78.7 | 1.1 | – | C[C@H]1SC(N)=N[C@](C)(c2cc(NC(=O)c3ccc(F)cn3)ccc2F)[C@H]1F [Compound I-116]
5.41 | 1.5 | – | 1.2 | – | C[C@H]1[C@@H](C(F)(F)F)OC(N)=N[C@]1(C)c1cc(NC(=O)c2ccc(C#N)cn2)ccc1F [Compound I-28]
